{"source": "patent US6344180B1", "about": "(BioNebraska, Inc., priority 1999, dated 2002)", "key": {"[1]": {"system": "insulin secretion and blood glucose", "details": "infusions in patients with type II diabetes; cited from earlier work"}, "[2]": {"system": "pancreas", "details": "cited from earlier work"}, "[3]": {"system": "β-cell secretion", "experiment": "Part one: dose-response of I.V. bolus GLP-1 compared with glucagon test, peak plasma insulin and C-peptide", "type": "in vivo, human", "details": "glucagon test 1 mg I.V. bolus", "from_the_text": "(§1) The present study was divided into three parts.\n(§2) Part one: Six type II diabetic patients (four men and two women, mean (range), age: 56 years (48-67 years); BMI: 31.1 kg/m^2 (27-38 kg/m^2); HbA1c; 9.6% (7,0-12.5%) ) and 6 healthy subjects individually matched for sex, age and BMI (age: 56 years (51-70 years); BMI: 31.6 kg/m^2 (26-37 kg/M^2); HbA1c: 5.5% (5.2-5.8%)). […] Part three 8 type II diabetic patients (seven men and one woman, age: 55 years (49-69 years); BMI: 30.9 kg/m^2 (27-35 kg/M^2); HbA1c: 7.6% (6.3-8.6%)) and 8 healthy subjects (age: 55 years (51-64 years); BMI 31.1 kg/m^2 (25-38 kg/m^2); HbA1c: 5.4% (5.0-6.0%)) participated. Four patients were treated with diet alone while four were treated with diet and oral antidiabetics (sulphonylureas and/or biguanides). […] All type II diabetic patients were diagnosed according to the criteria of National Diabetes Data Group. […] All agreed to participate after oral and written information.\n(§3) All oral antidiabetics were discontinued 72 hours before the study.\n(§4) Meal test: Venous blood was drawn 15, 10 and 0 min before and 15, 30, 45, 60, 75, 90, 120, 150 and 180 minutes after ingestion of a standard breakfast meal. […] The peptide was dissolved in sterilized water containing 2% human serum albumin (Albumin Nordisk, Novo Nordisk, Bagsvaerd, Denmark, guaranteed to be free of hepatitis-B surface antigen and human immunodeficiency virus antibodies) and subjected to sterile filtration. Appropriate amounts of peptide for each experimental subject were dispensed into glass ampoules and stored frozen under sterile conditions until the day of the experiment. Part two: β-cell function was examined on 3 different days. […] Fifteen minutes later plasma glucose was elevated to 15 mmol/l by intravenous glucose (50% w/v) administration as described above.\n(§5) Plasma glucose concentrations were measured during the experiments using a glucose oxidase method with a Glucose Analyzer (Yellow Springs Instrument Model 23 A, USA). Plasma insulin concentrations were measured according to Albano et al using standards of human insulin and antibody code no. 2004. The sensitivity of the assay is approximately 3 pmol/l, the intraassay coefficient of variation is 8% at 48 pmol/l. C-peptide concentrations were determined by radioimmunoassay (RIA) as described by Heding et al employing the polyclonal antibody M1230[12]. […] The detection limit is approximately 60 pmol/l, the intra-assay coefficient of variance is 5%, interassay coefficient of variation is 7.3%. […] The assay has a detection limit of 5 pmol/l. […] The detection limit is 1 pmol/l."}, "[4]": {"system": "β-cell secretion", "experiment": "Part two: 2.5 nmol GLP-1, glucagon test, combined glucose+GLP-1 injection and s.c. GLP-1, peak plasma insulin and C-peptide", "type": "in vivo, human", "details": "glucagon test 1 mg I.V.", "from_the_text": "as §1, §2, §3, §4, §5"}, "[5]": {"system": "β-cell secretion", "experiment": "Part three: combined glucose+GLP-1 injection vs hyperglycemic clamp with L-arginine, maximal secretory capacity", "type": "in vivo, human", "details": "for Incremental C-peptide response (peak minus concentration at time of injection) / Incremental insulin response (peak minus concentration at time of injection): hyperglycemic clamp 30 mmol/l, 5 g L-arginine bolus at 45 min; for Absolute mean peak C-peptide concentration / Absolute mean peak insulin concentration: hyperglycemic clamp with 5 g L-arginine", "from_the_text": "as §1, §2, §3\nDuring the hyperglycemic clamp, glucose (50% w/v) was injected at time zero to increase the plasma glucose to 30 mmol/l (calculated as follows: (30 mmol/l−fasting plasma glucose)×35 mg glucose×weight in kilogram). Plasma glucose was kept at 30 mmol/l by continuous infusion of glucose, which was adjusted according to a bedside measurement of plasma glucose ever 5 minutes. At 45 minutes, 5 g L-arginine monohydrochloride was injected as a bolus during 30 seconds. Blood was sampled 15, 10 and 0 minutes before and 5, 10, 15, 20, 25, 30, 35, 40, 45, 47, 48, 49, 51, 53, 55, 60, 65, 70, 75 and 90 minutes after elevation of plasma glucose. The L-arginine was dissolved in 50 ml of sterilized water and dispensed into glass ampoules and stored at 4° C. until the day of the experiment. Blood was sampled into fluoride tubes for measurement of glucose and into chilled EDTA tubes with aprotinin (500 KIU/ml blood; Trasylol, Bayer, Leverkusen, Germany) for peptide analyses. Tubes were immediately cooled on ice and centrifuged within 20 minutes at 4° C., and plasma was stored at −20° C. until analysis.\nas §5"}}, "note": "Ends that are not written are not given here.", "data": [{"compound": "glucose-dependent insulinotropic polypeptide [GIP]", "values": [{"measurement": "Effect on insulin secretion and blood glucose", "setting": "[1]", "value": "little or no effect"}]}, {"compound": "Glu Gly Thr Phe Thr Ser Asp Val Ser Ser Tyr Leu Glu Gly Gln Ala Ala Lys Glu Phe Ile Ala Trp Leu Val Lys Gly Arg Gly (EGTFTSDVSSYLEGQAAKEFIAWLVKGRG; listed as Homo sapiens) [SEQ. ID NO:5]", "values": [{"measurement": "Stimulation of production or release of insulin from the pancreas", "setting": "[2]", "value": "do not stimulate"}]}, {"compound": "glucagon", "values": [{"measurement": "Peak C-peptide concentration (mean ± SEM)", "setting": "[3]; healthy controls", "value": "1874 ± 158", "unit": "pmol/L"}, {"measurement": "Peak insulin concentration (mean ± SEM)", "setting": "[3]; healthy controls", "value": "360 ± 39", "unit": "pmol/L"}, {"measurement": "Peak C-peptide concentration (mean ± SEM)", "setting": "[3]; type 2 diabetic patients", "value": "1643 ± 178", "unit": "pmol/L"}, {"measurement": "Peak insulin concentration (mean ± SEM)", "setting": "[3]; type 2 diabetic patients", "value": "265 ± 45", "unit": "pmol/L"}, {"measurement": "Peak C-peptide concentration (mean ± SEM)", "setting": "[4]; healthy controls", "value": "1995 ± 99", "unit": "pmol/L"}, {"measurement": "Peak insulin concentration (mean ± SEM)", "setting": "[4]; healthy controls", "value": "420 ± 61", "unit": "pmol/L"}, {"measurement": "Peak C-peptide concentration (mean ± SEM)", "setting": "[4]; type 2 diabetic patients", "value": "1780 ± 160", "unit": "pmol/L"}, {"measurement": "Peak insulin concentration (mean ± SEM)", "setting": "[4]; type 2 diabetic patients", "value": "329 ± 50", "unit": "pmol/L"}]}, {"compound": "Cl.N=C(N)NCCC[C@H](N)C(=O)O", "note": "[L-arginine, L-arginine monohydrochloride]", "values": [{"measurement": "Incremental C-peptide response (peak minus concentration at time of injection)", "setting": "[5]; healthy subjects", "value": "3391 ± 388", "unit": "pmol/L"}, {"measurement": "Incremental insulin response (peak minus concentration at time of injection)", "setting": "[5]; healthy subjects", "value": "1921 ± 338", "unit": "pmol/L"}, {"measurement": "Incremental C-peptide response (peak minus concentration at time of injection)", "setting": "[5]; type II diabetic patients", "value": "1360 ± 250", "unit": "pmol/L"}, {"measurement": "Incremental insulin response (peak minus concentration at time of injection)", "setting": "[5]; type II diabetic patients", "value": "628 ± 226", "unit": "pmol/L"}, {"measurement": "Absolute mean peak C-peptide concentration", "setting": "[5]; healthy subjects", "value": "6047 ± 652", "unit": "pmol/L"}, {"measurement": "Absolute mean peak insulin concentration", "setting": "[5]; healthy subjects", "value": "2384 ± 452", "unit": "pmol/L"}, {"measurement": "Absolute mean peak C-peptide concentration", "setting": "[5]; type II diabetic patients", "value": "3043 ± 508", "unit": "pmol/L"}, {"measurement": "Absolute mean peak insulin concentration", "setting": "[5]; type II diabetic patients", "value": "816 ± 268", "unit": "pmol/L"}]}, {"compound": "Glu Gly Thr Phe Thr Ser Asp Val Ser Ser Tyr Leu Glu Gly Gln Ala Ala Lys Glu Phe Ile Ala Trp Leu Val Lys Gly Arg (NH2) (EGTFTSDVSSYLEGQAAKEFIAWLVKGR-NH2; listed as Homo sapiens) [SEQ. ID NO:6]", "values": [{"measurement": "Stimulation of production or release of insulin from the pancreas", "setting": "[2]", "value": "do not stimulate"}]}]}
